Measurements from patent US20240216317A1, “COMPOSITION FOR PREVENTING, AMELIORATING OR TREATING INFLAMMATORY BOWEL DISEASE COMPRISING COMPOUND ISOLATED FROM ISODON EXCISUS AS EFFECTIVE COMPONENT” (HEALINNOLS INC., priority 2022, published 2024).

Tests used:
TNF-α = TNF-α mRNA expression (qPCR) in zebra fish animal model of DSS-induced inflammatory bowel disease; format: in vivo, zebra fish (Danio rerio: AB); details: FIG. 5; for expression amount of TNF-α compared to DSS model group: zebra fish larvae, 0.5% DSS, 5 hours treatment, Chemical formula 1 0.3 μM and 1 μM
Procedure: As a zebra fish animal model of inflammatory bowel disease, wild-type zebra fish (Danio rerio: AB) was used, which was kept in an exclusive breeding facility at conditions including light/dark cycle of 14 hours/10 hours and temperature of 28° C. All the animal experiments were carried out according to the protocol of Ethics Committee for Animal Expectation, Healinno-LS (Registration No.: AEC-20210720-0001), and all the materials were sterilized first before they are used for experiment.
According to a treatment with 0.5% DSS (dextran sulfate sodium, M.W. 36,000-50,000, #160110, MP), which induces “ulcerative colitis” as inflammatory bowel disease by creating a damage in colonic epithelial cells, a zebra fish was induced to have inflammatory bowel disease. Then, by threating the zebra fish with the compound represented by Chemical formula 1 of the present invention at different concentrations (0.3 μM and 1 μM), inhibitory activity on inflammatory bowel disease was examined.
As a zebra fish animal model of DSS-induced ulcerative colitis, zebra fish larvae 3 days after fertilization (3 dpf; days post fertilization) were used. 3 dpf zebra fish larvae were added to a 24-well plate, i.e., 20 larvae per well, and treated with 0.5% DSS to induce ulcerative colitis. After keeping them to 6 dpf zebra fish larva period, DSS was removed, and then they were treated for 5 hours with the compound represented by Chemical formula 1 of the present invention.
The zebra fish larvae which have been treated with the compound represented by Chemical formula 1 of the present invention were then added with TRIzol reagent (300 μl), and then homogenized by using a tissue homogenizer (G20, GINKO). Homogenized zebra fish larvae were maintained for 5 minutes at room temperature, and then treated with chloroform (60 μl). After removing proteins and cell debris, the mixture was centrifuged for 15 minutes at 12,000×g, 4° C. […] Purity and concentration were measured by using a microplate reader (FLUOstar omega, BMG Labtech), and the extracted total RNA was kept at −80° C. […]

[1] = test system: animal model of DSS-induced inflammatory bowel disease; test: Therapeutic effect in mouse model of DSS-induced inflammatory bowel disease (body weight, DAI, colon length); format: in vivo, mouse (C57BL/6); details: 5-ASA 100 mg/kg oral; for DAI / Colon length: Day 8, mouse, 2.5% DSS, Compound 1 2 mg/kg intraperitoneal; for DAI: 7 days, DSS group 11.75 ± 0.15; for Colon length: DSS group 4.9, normal control 8.4; for rate of body weight loss compared to group administered with DSS: mouse, 2.5% DSS 7 days, Chemical formula 1 2 mg/kg intraperitoneal, once a day for 7 days, FIG. 6
Excerpt: As a mouse with induced inflammatory bowel disease, 6 week-old C57BL/6 was used, and the animal was induced to have the disease by administration of DSS (dextran sulfate sodium, MW 36000 to 50000, MP Biomedicals), Test groups were divided into the followings; normal control which has not been treated with any chemical (3 animals); group administered with DSS (6 animals); group administered with DSS+5-ASA (5-aminosalicylic acid, Sigma) (6 animals); and group administered with DSS+compound represented by Chemical formula 1 of the present invention (6 animals).
Inflammatory bowel disease is generally evaluated in terms of the disease activity index (DAI) based on clinical signs like body weight loss, diarrhea, and bloody feces. DAI is measured by giving a score to each of body weight loss rate, state of feces, and state of bloody feces (Table 1).
In this example, evaluation was made for 7 days for each test group. For all test groups except normal control, 100 ml of drinking water with 2.5% DSS were supplied for 7 days, while the water exchange was made every 2 days, to induce inflammatory bowel disease. The group administered with 5-ASA was orally administered, once a day for 7 days, with 100 mg/kg 5-ASA dispersed in 2.5% CMC (carboxymethylcellulose sodium, Sigma). The compound represented by Chemical formula 1 of the present invention (2 mg/kg) was administered via intraperitoneal injection, once a day for 7 days. From the first day of test, mouse of each test group was weighed to measure the rate of body weight loss. […] However, the weight loss was observed from Day 5 and thereafter in every test group induced to have inflammatory bowel disease by a treatment with DSS.
Evaluation of disease activity index (DAI) was also carried out, once a day from the first day of the test. From all test groups having inflammatory bowel disease induced by DSS treatment except normal control which has not been treated with any chemical, higher DAI was shown from Day 5 and thereafter.
Sum of each item analyzed on Day 8 based on the evaluation index of Table 1 was described as disease activation index (DAI) in Table 2.
With regard to the inflammatory response to inflammatory bowel disease, level of the response can be evaluated in terms of the decrease in colon length. Mouse in each test group was sacrificed on Day 8 and the colon was removed from the animal. Colon length was measured from the removed colon.

Structure (SMILES) | expression amount of TNF-α compared to DSS model group (TNF-α) | DAI [1] | Colon length [1] [cm] | rate of body weight loss compared to group administered with DSS [1] | reduction of transcription amount of proinflammatory cytokines (TNF-α; zebra fish DSS model, TNF-α and IL-1β, compared with 5-ASA and prednisolone)
Nc1ccc(O)c(C(=O)O)c1 [Compound 5-ASA, 5-aminosalicylic acid, reference compound] | statistically significantly lower | 10.67 ± 0.19 | 5.7 | lower rate of body weight loss | 
COC(=O)C[C@H](OC(=O)/C=C/c1ccc(O)c(O)c1)c1ccc(O)c(O)c1 [Compound 1, 3-[3,4-dihydroxyphenyl]acrylic acid 1-[3,4-dihydroxyphenyl]-2-methoxycarbonylethyl ester] | statistically significantly lower | 8.75 ± 0.21 | 7.4 | lower rate of body weight loss | much lower concentration than 5-ASA and prednisolone
